# Results: patent US20160311882A1, “Novel Compound for Treatment of Severe Hypoglycemia” (ELI LILLY AND COMPANY, priority 2013, published 2016)
# Read-outs that look alike come from different tables or passages of the source. Non-standard residues stand in square brackets, D forms with d. Residues, ends and D or L forms follow the SMILES beside them. No end group written: not given here. Aib = CC(C)(N)C(=O)O
# T1: human glucose-dependent insulinotropic peptide receptor (GIP-R) (human, UniProt P48546 22-466)
# T1 construct: whole, on cells; Assay used crude plasma membranes of the expressing CHO-S cells; also called human GIP-R; hGIP-R
# T1 sequence (looked up): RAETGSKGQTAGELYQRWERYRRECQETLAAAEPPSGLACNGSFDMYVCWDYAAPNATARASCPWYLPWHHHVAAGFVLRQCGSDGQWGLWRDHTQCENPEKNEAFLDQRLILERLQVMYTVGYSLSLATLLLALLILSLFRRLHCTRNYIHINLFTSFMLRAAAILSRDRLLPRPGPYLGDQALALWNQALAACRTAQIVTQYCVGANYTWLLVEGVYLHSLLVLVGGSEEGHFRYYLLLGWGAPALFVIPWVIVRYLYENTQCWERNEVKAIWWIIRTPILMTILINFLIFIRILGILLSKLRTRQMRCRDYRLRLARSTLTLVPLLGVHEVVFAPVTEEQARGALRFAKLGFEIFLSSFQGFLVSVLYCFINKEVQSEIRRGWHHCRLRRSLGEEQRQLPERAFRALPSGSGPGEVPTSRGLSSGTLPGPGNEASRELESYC
# Assays:
# [1] = format: physicochemical
# Method: (§1) The compound of SEQ ID NO: 2 is dissolved in H2O to a 10 mg/mL concentration (peptide content), filtered through a 0.22 μm filter (Millex, SLGV004SL), and then diluted to 1 mg/mL in Buffer P5 (10 mM Histidine, 150 mM NaCl in H20, pH 5.0) or Buffer P6 (10 mM Histidine, 150 mM NaCl in H20, pH 6.0). Each solution is transferred to three vials and autoclaved. Samples are then maintained at 4° C., 30° C. and 40° C. Samples are visually assessed at different time points for turbidity and phase separation. Stability of the compound is assessed by analytical reverse phase HPLC (RP-HPLC) on a Phenomenex Aeris Widepore, 3.6 μm, XB-C18 4.6×100 mm column (P/NO 00D-4482-E0) heated at 60° C. with a AB (A=0.05% TFA/H2O; B=0.04% TFA/acetonitrile) gradient of 5% B isocratic over 5 min, 5 to 25% B over 20 minutes, 25 to 30% B over 30 min, and 30 to 45% B over 10 min with a flow rate of 1.2 mL/min (wavelength of 220 ηm).
# blood glucose levels = experiment: Effects of compound on blood glucose levels in C57/Bl6 male mice; format: in vivo; conditions: for Blood glucose levels: mean ± SEM of 4 mice
# Method: To determine the effects of the compound of SEQ ID NO: 2 on blood glucose levels, the compound is administered to C57/B 16 mice. Three month old male C57BL6 mice (Harlan Laboratories) are used Animals are individually housed in a temperature-controlled (24° C.) facility with a 12 hour light/dark cycle, and have free access to food and water. After 1 week acclimation to the facility, mice are randomized to treatment groups (n=4/group). Test compound is formulated in Buffer 2 (see Physical stability test using Thioflavin T binding assay). On the morning of test, food is removed at 08:00 AM. Two hours after food is removed, the test compound is given subcutaneously at 0, 0.3, 1, 3 or 10 μg/kg doses. Blood glucose is measured at time 0, 15, 30, 60 and 120 minutes after test compound administration with an ACCU-CHECK® (Roche Diagnostics) glucometer. […] Results are expressed as mean±standard error mean (SEM) of 4 mice per group.
# Blood glucose levels at 10 μg/kg of compound of SEQ ID NO: 2 is taken as the maximum value.
# [2] = Chemical stability by RP-HPLC (% main peak); format: physicochemical; conditions: for 4° C. % Main Peak / 30° C. % Main Peak / 40° C. % Main Peak: 4 weeks
# Method: as §1
# The compound of SEQ ID NO: 2 also maintains chemical stability at pH 5 (Buffer P5) and pH 6 (Buffer P6) when maintained at 4° C., 30° C. and 40° C. for 4 weeks.
# [3] = Physical stability test using Thioflavin T binding assay (fibrillation); format: physicochemical; conditions: 25° C.; for Thioflavin T fluorescence t = 0 h / Thioflavin T fluorescence t = 48 h / Thioflavin T fluorescence t = 96 h: 1 mg/mL, stirred 300 rpm
# Method: Fibrillation is a common problem when glucagon is formulated in aqueous solution. To assess the level of fibrillation of the compound of the present invention, a Thioflavin T binding assay is performed.
# All samples are mechanically stressed at 25° C. in a magnetic stir plate set at 300 rpm. […] Raw data is collected with Softmax Pro 5.4.1 (Molecular Devices) and imported to Excel.
# [4] = molecular target: T2, human glucagon receptor (hGR) (human, UniProt P47871 26-477); experiment: SPA competition against 125I-labelled glucagon on 293HEK hGR membranes, Cheng-Prusoff
# T2 construct: whole, on cells; The cAMP assay used whole cells of the same line
# Method: Plates are sealed, mixed end over end, and read with a MicroBeta® scintillation counter after 12 hours of settling time at room temperature.
# [5] = molecular target: T1, human glucose-dependent insulinotropic …; experiment: SPA competition against radioiodinated GIP on CHO-S human GIP-R membranes, Cheng-Prusoff
# [6] = molecular target: T3, human glucagon-like peptide 1 receptor (hGLP-1R) (human, UniProt P43220 24-463); experiment: SPA competition against 125I-labelled GLP-1 amide on 293HEK hGLP-1R membranes, Cheng-Prusoff
# T3 construct: whole, on cells; Assay used crude plasma membranes of the expressing 293HEK cells
# [7] = molecular target: T4, mouse glucagon receptor (mGR) (mouse, UniProt Q61606 27-485); experiment: SPA competition against 125I-labelled glucagon on 293HEK mGR membranes, Cheng-Prusoff
# T4 construct: whole, on cells; Assay used crude plasma membranes of the expressing 293HEK cells
# [8] = molecular target: T2, human glucagon receptor (hGR); experiment: cell-based or functional assay
# [9] = Buffer 1 (20 mM Histidine, pH 6.0)
# [10] = Buffer 2 (10 mM Histidine, 150 nM NaCl, pH 6.0)
# [11] = Buffer 3 (10 mM Histidine, 300 mM sorbitol, pH 6.0)
# [12] = Buffer 4 (10 mM Histidine, 0.02% Tween 80, pH 6.0)
# [13] = Buffer 5 (10 mM Histidine, 300 mM sucrose, pH 6.0)
# T2 sequence (P47871 26-477): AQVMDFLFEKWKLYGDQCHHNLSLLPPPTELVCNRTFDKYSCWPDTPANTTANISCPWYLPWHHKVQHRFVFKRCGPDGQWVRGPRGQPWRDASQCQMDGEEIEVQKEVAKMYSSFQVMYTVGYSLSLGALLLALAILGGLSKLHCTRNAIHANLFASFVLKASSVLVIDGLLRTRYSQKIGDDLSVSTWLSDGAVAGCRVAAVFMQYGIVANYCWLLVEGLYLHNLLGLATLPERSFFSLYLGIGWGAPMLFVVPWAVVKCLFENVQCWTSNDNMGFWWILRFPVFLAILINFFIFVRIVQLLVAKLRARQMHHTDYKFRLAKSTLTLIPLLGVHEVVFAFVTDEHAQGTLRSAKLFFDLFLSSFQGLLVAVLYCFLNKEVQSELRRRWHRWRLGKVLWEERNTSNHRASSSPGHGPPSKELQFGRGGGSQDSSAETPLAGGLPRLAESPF
# T4 sequence (Q61606 27-485): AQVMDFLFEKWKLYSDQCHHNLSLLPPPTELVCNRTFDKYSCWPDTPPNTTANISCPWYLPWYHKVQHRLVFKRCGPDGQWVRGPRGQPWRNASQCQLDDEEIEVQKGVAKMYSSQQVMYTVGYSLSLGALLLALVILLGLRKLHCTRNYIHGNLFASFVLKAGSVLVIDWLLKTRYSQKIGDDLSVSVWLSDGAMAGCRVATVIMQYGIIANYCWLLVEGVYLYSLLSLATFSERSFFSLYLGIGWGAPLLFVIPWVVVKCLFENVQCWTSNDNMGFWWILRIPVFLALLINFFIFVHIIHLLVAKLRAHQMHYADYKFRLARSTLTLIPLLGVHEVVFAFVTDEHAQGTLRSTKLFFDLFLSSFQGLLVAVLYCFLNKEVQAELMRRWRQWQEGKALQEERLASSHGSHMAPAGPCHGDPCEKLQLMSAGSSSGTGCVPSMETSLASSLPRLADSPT
molecule,measurement,setting,value
CC(C)C[C@H](NC(=O)[C@H](Cc1c[nH]c2ccccc12)NC(=O)[C@H](CCC(=O)O)NC(=O)[C@@H](NC(=O)[C@H](Cc1ccccc1)NC(=O)[C@H](CCC(=O)O)NC(=O)[C@H](CCC(N)=O)NC(=O)[C@H](C)NC(=O)[C@H](CCCCN)NC(=O)[C@H](CCCCN)NC(=O)C(C)(C)NC(=O)[C@H](CC(=O)O)NC(=O)[C@H](CC(C)C)NC(=O)[C@H](Cc1ccc(O)cc1)NC(=O)[C@H](CCCCN)NC(=O)[C@H](CO)NC(=O)[C@H](Cc1ccc(O)cc1)NC(=O)[C@H](CC(=O)O)NC(=O)[C@H](CO)NC(=O)[C@@H](NC(=O)[C@H](Cc1ccccc1)NC(=O)[C@@H](NC(=O)CNC(=O)[C@H](CCC(N)=O)NC(=O)[C@H](CO)NC(=O)[C@@H](N)Cc1ccc(O)cc1)[C@@H](C)O)[C@@H](C)O)C(C)C)C(=O)N[C@@H](CC(C)C)C(=O)N[C@@H](CCCCN)C(=O)N[C@H](C(=O)NCC(=O)N1CCC[C@H]1C(=O)N[C@@H](CO)C(=O)N[C@@H](CO)C(=O)NCC(=O)N[C@@H](C)C(=O)N1CCC[C@H]1C(=O)N1CCC[C@H]1C(=O)N[C@@H](CCCCN)C(=O)N[C@@H](CO)C(=O)N[C@@H](CCCCN)C(N)=O)[C@@H](C)O [SEQ ID NO: 2] (H-YSQGTFTSDYSKYLD[Aib]KKAQEFVEWLLKTGPSSGAPPKSK-NH2; N-terminus assumed),solubility,[1],maintains good solubility
same,Physical appearance,"[1]; 4° C., 30° C. and 40° C., pH 5 and pH 6, over 4 weeks","clear to colorless, with no opalescences and no particles"
same,30° C. vs 4° C. Recovery 4 wk,[1]; Buffer P5 (pH 5.0),102%
same,40° C. vs 4° C. Recovery 4 wk,[1]; Buffer P5 (pH 5.0),99%
same,30° C. vs 4° C. Recovery 4 wk,[1]; Buffer P6 (pH 6.0),101%
same,40° C. vs 4° C. Recovery 4 wk,[1]; Buffer P6 (pH 6.0),103%
same,Blood glucose levels,"blood glucose levels; 0.3 μg/kg subcutaneously, 0 minutes",140.2 ± 2.4 mg/dL
same,Blood glucose levels,"blood glucose levels; 0.3 μg/kg subcutaneously, 15 minutes",185.6 ± 7.5 mg/dL
same,Blood glucose levels,"blood glucose levels; 0.3 μg/kg subcutaneously, 30 minutes",193.3 ± 6.0 mg/dL
same,Blood glucose levels,"blood glucose levels; 0.3 μg/kg subcutaneously, 60 minutes",167.4 ± 6.6 mg/dL
same,Blood glucose levels,"blood glucose levels; 0.3 μg/kg subcutaneously, 120 minutes",147.0 ± 5.1 mg/dL
same,Blood glucose levels,"blood glucose levels; 1 μg/kg subcutaneously, 0 minutes",140.0 ± 2.0 mg/dL
same,Blood glucose levels,"blood glucose levels; 1 μg/kg subcutaneously, 15 minutes",200.6 ± 5.8 mg/dL
same,Blood glucose levels,"blood glucose levels; 1 μg/kg subcutaneously, 30 minutes",204.8 ± 8.9 mg/dL
same,Blood glucose levels,"blood glucose levels; 1 μg/kg subcutaneously, 60 minutes",161.9 ± 4.0 mg/dL
same,Blood glucose levels,"blood glucose levels; 1 μg/kg subcutaneously, 120 minutes",145.6 ± 3.9 mg/dL
same,Blood glucose levels,"blood glucose levels; 3 μg/kg subcutaneously, 0 minutes",141.5 ± 3.0 mg/dL
same,Blood glucose levels,"blood glucose levels; 3 μg/kg subcutaneously, 15 minutes",245.5 ± 10.0 mg/dL
same,Blood glucose levels,"blood glucose levels; 3 μg/kg subcutaneously, 30 minutes",265.6 ± 13.3 mg/dL
same,Blood glucose levels,"blood glucose levels; 3 μg/kg subcutaneously, 60 minutes",188.1 ± 9.3 mg/dL
same,Blood glucose levels,"blood glucose levels; 3 μg/kg subcutaneously, 120 minutes",143.9 ± 3.8 mg/dL
same,Blood glucose levels,"blood glucose levels; 10 μg/kg subcutaneously, 0 minutes",147.7 ± 4.4 mg/dL
same,Blood glucose levels,"blood glucose levels; 10 μg/kg subcutaneously, 15 minutes",252.3 ± 11.2 mg/dL
same,Blood glucose levels,"blood glucose levels; 10 μg/kg subcutaneously, 30 minutes",271.8 ± 13.8 mg/dL
same,Blood glucose levels,"blood glucose levels; 10 μg/kg subcutaneously, 60 minutes",202.1 ± 7.9 mg/dL
same,Blood glucose levels,"blood glucose levels; 10 μg/kg subcutaneously, 120 minutes",146.3 ± 5.5 mg/dL
same,ED50,"blood glucose levels; calculated on the 30 minute glucose measurements, 10 μg/kg taken as maximum, subcutaneous",1.36 µg/kg
same,% Main Peak Day 0,[2]; Buffer P5 (pH 5),96.53%
same,4° C. % Main Peak,[2]; Buffer P5 (pH 5),96.93%
same,30° C. % Main Peak,[2]; Buffer P5 (pH 5),93.82%
same,40° C. % Main Peak,[2]; Buffer P5 (pH 5),91.59%
same,main peak changes,"[2]; Buffer P5, pH 5 at 4-wk 30° C. vs 4° C.",less than 4%
same,main peak changes,"[2]; Buffer P5, pH 5 at 4-wk 40° C. vs 4° C.",< 6%
same,% Main Peak Day 0,[2]; Buffer P6 (pH 6),97.00%
same,4° C. % Main Peak,[2]; Buffer P6 (pH 6),95.89%
same,30° C. % Main Peak,[2]; Buffer P6 (pH 6),95.17%
same,40° C. % Main Peak,[2]; Buffer P6 (pH 6),90.57%
same,main peak changes,"[2]; Buffer P6, pH 6 at 4-wk 30° C. vs 4° C.",< 1%
same,main peak changes,"[2]; Buffer P6, pH 6 at 4-wk 40° C. vs 4° C.",< 6%
same,fibrillation as measured by the Thioflavin T binding assay,"[3]; pH 6, 96 hours, mechanical stress",did not demonstrate fibrillation
same,Thioflavin T fluorescence t = 0 h,[3]; [9],84.5 fluorescence units
same,Thioflavin T fluorescence t = 48 h,[3]; [9],89.5 fluorescence units
same,Thioflavin T fluorescence t = 96 h,[3]; [9],98.1 fluorescence units
same,Thioflavin T fluorescence t = 0 h,[3]; [10],188.4 fluorescence units
same,Thioflavin T fluorescence t = 48 h,[3]; [10],211.6 fluorescence units
same,Thioflavin T fluorescence t = 96 h,[3]; [10],231.4 fluorescence units
same,Thioflavin T fluorescence t = 0 h,[3]; [11],83.6 fluorescence units
same,Thioflavin T fluorescence t = 48 h,[3]; [11],90.9 fluorescence units
same,Thioflavin T fluorescence t = 96 h,[3]; [11],101.7 fluorescence units
same,Thioflavin T fluorescence t = 0 h,[3]; [12],70.1 fluorescence units
same,Thioflavin T fluorescence t = 48 h,[3]; [12],76.9 fluorescence units
same,Thioflavin T fluorescence t = 96 h,[3]; [12],83.9 fluorescence units
same,Thioflavin T fluorescence t = 0 h,[3]; [13],86.3 fluorescence units
same,Thioflavin T fluorescence t = 48 h,[3]; [13],87.5 fluorescence units
same,Thioflavin T fluorescence t = 96 h,[3]; [13],98.9 fluorescence units
"YSQGTFTSDYSKYLD[Aib]KKAQEFVEWLLKTGPSSGAPPKSK-NH2 (also: acetate salt, Synthetic peptide made on Rink amide resin; acetate salt) [compound of SEQ ID NO: 2]",Ki,[4],0.286 nM
same,Ki,[5],532 nM
same,Ki,[6],2540 nM
same,Ki,[7],1.82 nM
same,"EC50, hGR stimulated cAMP functional assay (HTRF, hGR-HEK293 cells)",[8],0.0203 nM
